Assay results reported in ChEMBL document CHEMBL4270495, “Oleanane-, ursane-, and quinone methide friedelane-type triterpenoid derivatives: Recent advances in cancer treatment” (Eur J Med Chem, 2017).
Each block holds one compound with its values, some of them ahead of it.

Tests used:
[1] = system: HL60/ADR; test: Cytotoxicity in human HL60/ADR cells assessed as reduction in cell viability incubated for 24 hrs by MTT assay; assay type: functional, cell-based
[2] = system: MDA-MB-231; test: Cytotoxicity in human MDA-MB-231 cells assessed as reduction in cell viability incubated for 24 hrs by MTT assay; assay type: functional, cell-based; conditions: MDA-MB-231, 24 h
[3] = system: HL-60; test: Cytotoxicity in human HL60 cells assessed as reduction in cell viability incubated for 24 hrs by MTT assay; assay type: functional, cell-based; conditions: HL-60, 24 h
[4] = system: SGC-7901; test: Cytotoxicity in human SGC7901 cells assessed as reduction in cell viability incubated for 48 hrs by MTT assay; assay type: functional, cell-based; conditions: SGC-7901, 48 h
[5] = system: HepG2; test: Cytotoxicity in human HepG2 cells assessed as reduction in cell viability incubated for 48 hrs by MTT assay; assay type: functional, cell-based; conditions: HepG2, 48 h
[6] = system: HeLa; test: Cytotoxicity in human HeLa cells assessed as reduction in cell viability incubated for 48 hrs by MTT assay; assay type: functional, cell-based
[7] = system: T-24; test: Cytotoxicity in human T24 cells assessed as reduction in cell viability incubated for 48 hrs by MTT assay; assay type: functional, cell-based; conditions: T-24, 48 h
[8] = Cytotoxicity in human SPCA2 cells assessed as reduction in cell viability incubated for 48 hrs by MTT assay; assay type: functional, cell-based; conditions: SPCA2, 48 h
[9] = system: A549; test: Cytotoxicity in human A549 cells assessed as reduction in cell viability incubated for 48 hrs by MTT assay; assay type: functional, cell-based; conditions: A549, 48 h
[10] = system: HUVEC; test: Cytotoxicity in HUVEC cells assessed as reduction in cell viability incubated for 48 hrs by MTT assay; assay type: cell-based; conditions: Homo sapiens
[11] = system: HeLa; test: Cytotoxicity in human HeLa cells assessed as reduction in cell viability incubated for 72 hrs by CCK8 assay; assay type: functional, cell-based
[12] = system: RAW264.7; test: Anti-inflammatory activity in mouse RAW264.7 cells assessed as inhibition of nitric oxide production; assay type: functional, cell-based
[13] = system: AGS; test: Cytotoxicity in human AGS cells assessed as reduction in cell viability incubated for 24 hrs by MTT assay; assay type: functional, cell-based
[14] = Cytotoxicity in human HELF cells assessed as reduction in cell viability incubated for 24 hrs by MTT assay; assay type: cell-based
[15] = system: HepG2; test: Cytotoxicity in human HepG2 cells assessed as reduction in cell viability incubated for 24 hrs by MTT assay; assay type: functional, cell-based; conditions: HepG2, 24 h
[16] = system: HeLa; test: Cytotoxicity in human HeLa cells assessed as reduction in cell viability incubated for 24 hrs by MTT assay; assay type: functional, cell-based
[17] = system: MCF7; test: Cytotoxicity in human MCF7 cells assessed as reduction in cell viability incubated for 24 hrs by MTT assay; assay type: functional, cell-based; conditions: MCF7, 24 h
[18] = system: A549; test: Cytotoxicity in human A549 cells assessed as reduction in cell viability incubated for 24 hrs by MTT assay; assay type: functional, cell-based; conditions: A549, 24 h
[19] = system: A-375; test: Cytotoxicity in human A375 cells assessed as reduction in cell viability incubated for 24 hrs by MTT assay; assay type: functional, cell-based; conditions: A-375, 24 h
[20] = system: NCI-H446; test: Cytotoxicity in human NCI-H446 cells assessed as reduction in cell viability incubated for 24 hrs by MTT assay; assay type: functional, cell-based; conditions: NCI-H446, 24 h

Compound: COC(=O)[C@]12CCC(C)(C)C[C@H]1C1=CC(=O)[C@@H]3[C@@]4(C)CCC(=O)C(C)(C)[C@@H]4CC[C@@]3(C)[C@]1(C)CC2
- IC50 [1]: 7.54 µM
- IC50 [2]: 33.2 µM
- IC50 [3]: 2.85 µM

Compound: C[C@@H]1CC[C@]2(C(=O)OCC(=O)N/N=C/c3ccc(Cl)cc3)CC[C@]3(C)C(=CC(=O)[C@@H]4[C@@]5(C)CC[C@H](O)[C@](C)(CO)[C@@H]5CC[C@]43C)[C@@H]2[C@]1(C)O
- IC50 [4]: > 100 µM
- IC50 [5]: > 100 µM
- IC50 [6]: > 100 µM

Compound: CCOP(=O)(OCC)C(NC(=O)[C@]12CC[C@@H](C)[C@H](C)[C@H]1C1=CC[C@@H]3[C@@]4(C)C[C@@H](OC(C)=O)[C@H](OC(C)=O)[C@@](C)(COC(C)=O)[C@@H]4CC[C@@]3(C)[C@]1(C)CC2)c1ccccc1Cl (stereo not given in full)
- IC50 [7]: 6.59 µM
- IC50 [8]: 15 µM
- IC50 [9]: 14.9 µM
- IC50 [10]: > 100 µM

Compound: COC(=O)C1CCCN1C(=O)[C@]12CC[C@@H](C)[C@H](C)[C@H]1C1=CC[C@@H]3[C@@]4(C)C[C@@H](O)[C@H](O)[C@@](C)(CO)[C@@H]4CC[C@@]3(C)[C@]1(C)CC2 (stereo not given in full)
- IC50 [11]: 21.3 µM

- IC50 [12]: 1 µM
Compound: CC1(C)CC[C@]2(C(=O)n3ccnc3)CC[C@]3(C)[C@H](C(=O)C=C4[C@@]5(C)C=C(C#N)C(=O)C(C)(C)[C@@H]5CC[C@]43C)[C@@H]2C1

Compound: C[C@@H]1CC[C@]2(C(=O)OCC(=O)N/N=C/c3ccc([N+](=O)[O-])cc3)CC[C@]3(C)C(=CC(=O)[C@@H]4[C@@]5(C)CC[C@H](O)[C@](C)(CO)[C@@H]5CC[C@]43C)[C@@H]2[C@]1(C)O
- IC50 [4]: 15.4 µM
- IC50 [5]: 8.74 µM
- IC50 [6]: 18.8 µM

Compound: CCOP(=O)(OCC)C(NC(=O)[C@]12CC[C@@H](C)[C@H](C)[C@H]1C1=CC[C@@H]3[C@@]4(C)C[C@@H](OC(C)=O)[C@H](OC(C)=O)[C@@](C)(COC(C)=O)[C@@H]4CC[C@@]3(C)[C@]1(C)CC2)c1ccc2ccccc2c1 (stereo not given in full)
- IC50 [7]: 49.1 µM
- IC50 [8]: 48.7 µM
- IC50 [9]: 46.3 µM
- IC50 [10]: > 100 µM

Compound: C[C@H]1[C@H](C)CC[C@]2(C(=O)NCCCCCCN)CC[C@]3(C)C(=CC[C@@H]4[C@@]5(C)CC[C@H](O)C(C)(C)[C@@H]5CC[C@]43C)[C@H]12
- IC50 [13]: 16.6 µM
- IC50 [14]: 12.4 µM
- IC50 [15]: 13.4 µM
- IC50 [16]: 13.3 µM

Compound: CC(=O)O[C@H]1CC[C@]2(C)[C@H]3CC=C4[C@@H]5[C@@H](C)[C@H](C)CC[C@]5(C(=O)NCCN)CC[C@@]4(C)[C@]3(C)CC[C@H]2C1(C)C
- IC50 [13]: 14.5 µM
- IC50 [14]: 18.1 µM
- IC50 [15]: 16.3 µM
- IC50 [16]: 4.4 µM

Compound: C[C@@H]1O[C@@H](O[C@H]2CC[C@@]3(C)[C@@H](CC[C@]4(C)[C@@H]3CC=C3[C@H]5CC(C)(C)CC[C@]5(C(=O)O)CC[C@]34C)[C@]2(C)CO)[C@H](O)[C@H](O)[C@H]1O[C@@H]1O[C@H](CO)[C@@H](O)[C@H](O)[C@H]1O
- IC50 [17]: 41.3 µM
- IC50 [18]: 17.8 µM

Compound: C[C@@H]1O[C@@H](O[C@H]2CC[C@@]3(C)[C@@H](CC[C@]4(C)[C@@H]3CC=C3[C@H]5CC(C)(C)CC[C@]5(C(=O)O)CC[C@]34C)[C@]2(C)CO)[C@H](O)[C@H](O)[C@H]1O[C@@H]1OC[C@H](O)[C@H](O)[C@H]1O
- IC50 [17]: 42.1 µM
- IC50 [18]: 17.3 µM

- IC50 [12]: 17 µM
Compound: COC(=O)[C@]12CC[C@@H](C)[C@H](C)[C@H]1C1=CC[C@@H]3[C@@]4(C)C=C(C#N)C(=O)C(C)(C)[C@@H]4CC[C@@]3(C)[C@]1(C)CC2

- IC50 [12]: 1 to 7 µM
Compound: C[C@H]1[C@H](C)CC[C@]2(C#N)CC[C@]3(C)C(=CC[C@@H]4[C@@]5(C)C=C(C#N)C(=O)C(C)(C)[C@@H]5CC[C@]43C)[C@H]12

Compound: CC(=O)O[C@H]1CC[C@]2(C)[C@H]3CC=C4[C@@H]5[C@@H](C)[C@H](C)CC[C@]5(C(=O)NCCCCCCN)CC[C@@]4(C)[C@]3(C)CC[C@H]2C1(C)C
- IC50 [13]: 12.8 µM
- IC50 [14]: 14.9 µM
- IC50 [15]: 7.2 µM
- IC50 [16]: 3.8 µM

Compound: C[C@@H]1CC[C@]2(C(=O)NC(Cc3c[nH]c4ccccc34)C(=O)O)CC[C@]3(C)C(=CC(=O)[C@@H]4[C@@]5(C)CC[C@H](O)[C@](C)(CO)[C@@H]5CC[C@]43C)[C@@H]2[C@]1(C)O (stereo not given in full)
- IC50 [19]: 8.03 µM
- IC50 [15]: 6.11 µM
- IC50 [20]: 11.3 µM
